Values of other authors as cited in patent publication US20240047033A1, “MULTI-OMICS METHODS FOR PRECISION MEDICINE” (UNIVERSITY OF PITTSBURGH-OF THE COMMONWEALTH SYSTEM OF …, priority 2020, published 2024).

Test system: non-small cell lung cancer (NSCLC) tumors
Conditions: pretreated chemorefractory NSCLC patients, Erlotinib monotherapy, 28 patients

Question: With `C#Cc1cccc(Nc2ncnc3cc(OCCOC)c(OCCOC)cc23)c1` [Erlotinib] as the compound, how does the “time within which all treated patients progressed” value read?
Answer: six
